From PubChem BioAssay AID256 (DTP/NCI, 2004)
Values joined by “and” are separate entries in the source; they are usually repeats but may differ in a detail not shown here. Identical values can stand only once. Toxic doses and inconclusive results are not listed. The calls were made as follows: active = survival T/C of 150% or more; inactive = T/C below 125% in these data.

System: CD2F1 mice, L1210 leukemia ip, survival T/C
Assay: NCI In Vivo Anticancer Drug Screen. Data for tumor model L1210 Leukemia (intraperitoneal) in CD2F1 (CDF1) mice
Conditions: higher = longer survival
Procedure, shortened: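 Compound-dosed mice with transplantable tumor versus matched vehicle controls; endpoint ratio T/C reported.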

[1] = endpoint: mean survival time, dose: 25.0 mg/kg/injection, schedule: Q01DX009 (ip), vehicle: saline with Tween-80
[2] = endpoint: mean survival time, dose: 25.0 mg/kg/injection, schedule: Q04DX003 (ip), vehicle: saline with Tween-80
[3] = endpoint: mean survival time, dose: 50.0 mg/kg/injection, schedule: Q01DX009 (ip), vehicle: saline with Tween-80
[4] = endpoint: mean survival time, dose: 50.0 mg/kg/injection, schedule: Q04DX003 (ip), vehicle: saline with Tween-80
[5] = endpoint: mean survival time, dose: 100.0 mg/kg/injection, schedule: Q01DX009 (ip), vehicle: saline with Tween-80
[6] = endpoint: mean survival time, dose: 100.0 mg/kg/injection, schedule: Q04DX003 (ip), vehicle: saline with Tween-80
[7] = endpoint: mean survival time, dose: 200.0 mg/kg/injection, schedule: Q04DX003 (ip), vehicle: saline with Tween-80
[8] = endpoint: mean survival time, dose: 400.0 mg/kg/injection, schedule: Q04DX003 (ip), vehicle: saline with Tween-80
[9] = endpoint: mean survival time, dose: 25.0 mg/kg/injection, schedule: Q04DX003 (ip), vehicle: saline
[10] = endpoint: mean survival time, dose: 50.0 mg/kg/injection, schedule: Q04DX003 (ip), vehicle: saline
[11] = endpoint: mean survival time, dose: 100.0 mg/kg/injection, schedule: Q01DX009 (ip), vehicle: saline
[12] = endpoint: mean survival time, dose: 100.0 mg/kg/injection, schedule: Q04DX003 (ip), vehicle: saline
[13] = endpoint: mean survival time, dose: 200.0 mg/kg/injection, schedule: Q01DX009 (ip), vehicle: saline
[14] = endpoint: mean survival time, dose: 200.0 mg/kg/injection, schedule: Q01DX009 (ip), vehicle: saline with Tween-80
[15] = endpoint: mean survival time, dose: 400.0 mg/kg/injection, schedule: Q01DX009 (ip), vehicle: saline with Tween-80
[16] = endpoint: mean survival time, dose: 12.5 mg/kg/injection, schedule: Q01DX009 (ip), vehicle: saline with Tween-80
[17] = endpoint: mean survival time, dose: 6.25 mg/kg/injection, schedule: Q01DX009 (ip), vehicle: saline with Tween-80
[18] = endpoint: mean survival time, dose: 100.0 mg/kg/injection, schedule: Q01DX001 (ip), vehicle: saline
[19] = endpoint: mean survival time, dose: 200.0 mg/kg/injection, schedule: Q01DX001 (ip), vehicle: saline
[20] = endpoint: mean survival time, dose: 400.0 mg/kg/injection, schedule: Q01DX001 (ip), vehicle: saline
[21] = endpoint: mean survival time, dose: 100.0 mg/kg/injection, schedule: Q04DX002 (ip), vehicle: saline with Tween-80
[22] = endpoint: mean survival time, dose: 400.0 mg/kg/injection, schedule: Q04DX002 (ip), vehicle: saline with Tween-80

Measured: T/C

CCOC(=O)C1C2CC(O)C(O)CC21 (stereo unspecified)
inactive: endpoint: median survival time, dose: 25.0 mg/kg/injection, schedule: Q04DX003 (ip), vehicle: saline with Tween-80 90 % of control | endpoint: median survival time, dose: 50.0 mg/kg/injection, schedule: Q04DX003 (ip), vehicle: saline with Tween-80 90 % of control

CNCCOc1ccc(Cl)cc1
inactive: [1] 94 % of control | [2] 96 % of control | [3] 96 % of control | [4] 113 % of control | [5] 96 % of control | [6] 96 % of control and 97 % of control

COC1(c2ccccc2)CN(Cc2ccccc2)CCO1 (stereo unspecified)
inactive: [6] 103 % of control | [7] 100 % of control | [8] 106 % of control

Cc1nc(C(N)=O)c(=O)[nH]c1C
inactive: [9] 102 % of control | [10] 107 % of control | [11] 111 % of control | [12] 101 % of control | [13] 100 % of control | endpoint: mean survival time, dose: 400.0 mg/kg/injection, schedule: Q01DX009 (ip), vehicle: saline 97 % of control

CCOC(=O)CCOc1ccc(Cl)cc1
inactive: [5] 95 % of control | [6] 89 % of control | [14] 97 % of control | [7] 93 % of control | [15] 104 % of control | [8] 91 % of control

Nc1ccc(OC(=O)c2ccccc2)cc1
inactive: endpoint: mean survival time, dose: 12.5 mg/kg/injection, schedule: Q01DX001 (ip), vehicle: saline with Tween-80 92 % of control | [16] 91 % of control | endpoint: mean survival time, dose: 25.0 mg/kg/injection, schedule: Q01DX001 (ip), vehicle: saline with Tween-80 90 % of control | [1] 86 % of control | endpoint: mean survival time, dose: 50.0 mg/kg/injection, schedule: Q01DX001 (ip), vehicle: saline with Tween-80 90 % of control

C[n+]1cccc(C(=O)NCCc2c[nH]c3ccccc23)c1
inactive: endpoint: mean survival time, dose: 18.75 mg/kg/injection, schedule: Q01DX009 (ip), vehicle: saline with Tween-80 92 % of control | endpoint: mean survival time, dose: 37.5 mg/kg/injection, schedule: Q01DX009 (ip), vehicle: saline with Tween-80 93 % of control | endpoint: mean survival time, dose: 37.5 mg/kg/injection, schedule: Q04DX003 (ip), vehicle: acetone 95 % of control | endpoint: mean survival time, dose: 75.0 mg/kg/injection, schedule: Q01DX009 (ip), vehicle: saline with Tween-80 97 % of control | endpoint: mean survival time, dose: 75.0 mg/kg/injection, schedule: Q04DX003 (ip), vehicle: acetone 95 % of control

COC(=O)C(F)C(Br)C(=O)OC (stereo unspecified)
inactive: endpoint: mean survival time, dose: 3.12 mg/kg/injection, schedule: Q01DX009 (ip), vehicle: saline with Tween-80 108 % of control | [17] 97 % of control | [16] 107 % of control | [1] 105 % of control | [3] 108 % of control

COc1ccc(C2CCc3cc4c(cc3C2=O)OCO4)cc1OC (stereo unspecified)
inactive: [6] 98 % of control | [7] 96 % of control | [8] 91 % of control

COC(=O)N1c2ccccc2C=CC1C#N (stereo unspecified)
inactive: [17] 89 % of control | [16] 103 % of control | endpoint: mean survival time, dose: 12.5 mg/kg/injection, schedule: Q04DX003 (ip), vehicle: saline with Tween-80 97 % of control | [1] 95 % of control | [2] 97 % of control | [3] 98 % of control | [4] 97 % of control | [5] 101 % of control | [6] 98 % of control | [7] 95 % of control

O=C(Nc1c(Cl)cccc1Cl)Oc1ccc(Br)cc1
inactive: [3] 103 % of control | [5] 103 % of control

Cc1cnnc(N(C)N)c1
inactive: endpoint: mean survival time, dose: 12.5 mg/kg/injection, schedule: Q04DX002 (ip), vehicle: saline 107 % of control | endpoint: mean survival time, dose: 25.0 mg/kg/injection, schedule: Q04DX002 (ip), vehicle: saline 114 % of control | endpoint: mean survival time, dose: 50.0 mg/kg/injection, schedule: Q04DX002 (ip), vehicle: saline 96 % of control

CC(=O)O[C@H]1C(=O)[C@@]2(C)[C@H]([C@H](OC(=O)c3ccccc3)[C@]3(O)C[C@H](OC(=O)[C@H](O)[C@@H](NC(=O)c4ccccc4)c4ccccc4)C(C)=C1C3(C)C)[C@]1(OC(C)=O)CO[C@@H]1C[C@@H]2O
inactive: endpoint: mean survival time, dose: 1.25 mg/kg/injection, schedule: Q01DX009 (ip), vehicle: Klucel (hydroxypropylcellulose) (HPC) 93 % of control | endpoint: mean survival time, dose: 2.5 mg/kg/injection, schedule: Q01DX009 (ip), vehicle: Klucel (hydroxypropylcellulose) (HPC) 98 % of control | endpoint: mean survival time, dose: 5.0 mg/kg/injection, schedule: Q01DX009 (ip), vehicle: Klucel (hydroxypropylcellulose) (HPC) 113 % of control and 102 % of control | endpoint: mean survival time, dose: 10.0 mg/kg/injection, schedule: Q01DX009 (ip), vehicle: Klucel (hydroxypropylcellulose) (HPC) 115 % of control | endpoint: mean survival time, dose: 40.0 mg/kg/injection, schedule: Q01DX009 (ip), vehicle: Klucel (hydroxypropylcellulose) (HPC) 107 % of control

OC1c2ccccc2CCc2ccccc21
inactive: [2] 97 % of control | [4] 103 % of control | [6] 101 % of control

C/C(=N/O)c1ccc2c(c1)C(C)c1ccccc1-2 (stereo unspecified)
inactive: [18] 112 % of control | [19] 110 % of control | [20] 104 % of control

COc1ccc(OC)c(C2N(C)CCCN2C)c1
inactive: endpoint: mean survival time, dose: 6.25 mg/kg/injection, schedule: Q01DX009 (ip), vehicle: saline sonified 90 % of control | endpoint: mean survival time, dose: 6.25 mg/kg/injection, schedule: Q04DX003 (ip), vehicle: saline sonified 100 % of control | endpoint: mean survival time, dose: 12.5 mg/kg/injection, schedule: Q01DX009 (ip), vehicle: saline sonified 88 % of control | endpoint: mean survival time, dose: 12.5 mg/kg/injection, schedule: Q04DX003 (ip), vehicle: saline sonified 101 % of control | endpoint: mean survival time, dose: 25.0 mg/kg/injection, schedule: Q01DX009 (ip), vehicle: saline sonified 103 % of control | endpoint: mean survival time, dose: 25.0 mg/kg/injection, schedule: Q04DX003 (ip), vehicle: saline sonified 100 % of control

CC(C)(C)N=C1OC(=O)c2ccccc21
inactive: [6] 101 % of control | [7] 101 % of control | [8] 101 % of control

CC1CCC2CCCCC2[N-]1.CC1CCC2CCCCC2[N-]1.[Cl][Pt+2][Cl] (stereo unspecified)
inactive: [2] 96 % of control | [4] 94 % of control | [6] 94 % of control | [8] 88 % of control

CC(C)(C)C1SCC(CO)CS1 (stereo unspecified)
inactive: [21] 97 % of control | endpoint: mean survival time, dose: 200.0 mg/kg/injection, schedule: Q04DX002 (ip), vehicle: saline with Tween-80 102 % of control | [22] 91 % of control

CCOc1ccc(OCC)c(NC(=O)Nc2ccccc2C)c1
inactive: endpoint: mean survival time, dose: 25.0 mg/kg/injection, schedule: Q04DX002 (ip), vehicle: saline with Tween-80 88 % of control | endpoint: mean survival time, dose: 50.0 mg/kg/injection, schedule: Q04DX002 (ip), vehicle: saline with Tween-80 88 % of control | [21] 90 % of control | [22] 90 % of control

O=S(=O)(O)c1ccc(-c2ccc(S(=O)(=O)O)cc2)cc1
inactive: endpoint: mean survival time, dose: 6.3 mg/kg/injection, schedule: Q01DX009 (ip), vehicle: saline 104 % of control | endpoint: mean survival time, dose: 6.3 mg/kg/injection, schedule: Q04DX003 (ip), vehicle: saline 102 % of control | endpoint: mean survival time, dose: 12.5 mg/kg/injection, schedule: Q01DX001 (ip), vehicle: saline 101 % of control | endpoint: mean survival time, dose: 12.5 mg/kg/injection, schedule: Q01DX009 (ip), vehicle: saline 104 % of control | endpoint: mean survival time, dose: 12.5 mg/kg/injection, schedule: Q04DX003 (ip), vehicle: saline 100 % of control | endpoint: mean survival time, dose: 25.0 mg/kg/injection, schedule: Q01DX001 (ip), vehicle: saline 103 % of control | endpoint: mean survival time, dose: 25.0 mg/kg/injection, schedule: Q01DX009 (ip), vehicle: saline 101 % of control | [9] 100 % of control | endpoint: mean survival time, dose: 50.0 mg/kg/injection, schedule: Q01DX001 (ip), vehicle: saline 101 % of control | endpoint: mean survival time, dose: 50.0 mg/kg/injection, schedule: Q01DX009 (ip), vehicle: saline 104 % of control | [10] 93 % of control | [18] 100 % of control and 108 % of control | [11] 106 % of control | [12] 103 % of control | [19] 100 % of control and 105 % of control | [13] 98 % of control | endpoint: mean survival time, dose: 200.0 mg/kg/injection, schedule: Q04DX003 (ip), vehicle: saline 100 % of control | [20] 104 % of control and 107 % of control

O=C(C1=CCCCC1)c1ccc(-c2ccccc2)cc1
inactive: [5] 102 % of control | [6] 95 % of control | [14] 91 % of control | [7] 95 % of control | [15] 96 % of control | [8] 93 % of control
